Experimental data reported in patent US20100279962A1, “MONOSEBACATE OF PYRAZOLE DERIVATIVE” (KISSEI PHARMACEUTICAL CO., LTD., priority 2007, published 2010).

Experiments:
[1] = Storage stability test (purity by HPLC, deliquescence); format: physicochemical; settings: for Purity (%) Initial / Purity (%) After 2 months: HPLC; for Storage stability (in words): 2 months
Protocol: The crystals of the monosebacate in Example 1 and amorphous 3-(3-{4-[3-(β-D-glucopyranosyloxy)-5-isopropyl-1H-pyrazol-4-ylmethyl]-3-methylphenoxy} propylamino)-2,2-dimethylpropionamide (free form) as Comparative Example were stored under condition of 40° C./75% relative humidity or 60° C. in open vessels, existence or nonexistence of the deliquescence and the storage stability for 2 months were examined. […] Analytical conditions of HPLC are as follows.
Detector: ultraviolet-visible absorption spectrophotometer
Column: LUNA C18(2) (produced by Phenomenex), 5 μm, 4.6×250 mm, particle diameter 100×10^−10 m
Column Temperature: a constant temperature of around 25° C.
Sample concentration: 1 mg/mL
Mobile phase A: 10 mM dipotassium hydrogenphosphate aqueous solution adjusted to pH 7.8 with phosphoric acid
Mobile phase B: Acetonitrile
0-30 min: Mobile phase A/Mobile phase B=78/22, 30-50 min: Mobile phase A/Mobile phase B=78/22→30/70, 50-60 min: Mobile phase A/Mobile phase B=30/70
Range of area measurement: for 50 minutes from the start, except for the area of the peak of the blank solution

[2] = system: Male Wistar rats; assay: Oral glucose tolerance test, combination effect with sulfonylureas; format: in vivo, rat; settings: for Plasma glucose concentration (mg/dL) Just before administration: fasted rats, baseline before oral dosing; for Plasma glucose concentration (mg/dL) Just before administration / Plasma glucose concentration (mg/dL) 1 hr after administration: mean ± standard error; for Plasma glucose concentration at 1 hr compared with the Control group (in words) / Plasma glucose concentration (mg/dL) 1 hr after administration: oral, monosebacate 0.03 mg/kg as free form, gliclazide 0.3 mg/kg, oral glucose load
Protocol: (§1) Male Wistar rats (Charles River Japan, Inc.) at 9 weeks of age, fasted about 16 hours (each group has 6 animals), were administrated orally in a volume of 2.5 mL/kg with distilled water and 0.1% methylcellulose solution in the Control group, with the monosebacate (0.03 mg/kg as the above compound (B) (free form)) dissolved in distilled water (hereinafter referred to as the “monosebacate solution”) and 0.1% methylcellulose solution in the Monosebacate alone group, with gliclazide (0.3 mg/kg as gliclazide) dissolved in 0.1% methylcellulose solution (hereinafter referred to as the “gliclazide solution”) and distilled water in the Gliclazide alone group and with the monosebacate solution and the gliclazide solution (0.03 mg/kg as the compound (B) and 0.3 mg/kg as gliclazide) in the Gliclazide combination group, respectively. Subsequently, 0.4 g/mL of glucose solution (5 mL/kg) was loaded orally. The blood was collected from tail vein before and 1 hr after administration of test substance, and the plasma glucose concentrations were measured using Glucose C-II test WAKO (Wako Pure Chemical Industries, Ltd.). The numerical values in the table represent mean value±standard error.

[3] = system: Male Wistar rats; assay: Oral glucose tolerance test, combination effect with glinides; format: in vivo, rat; settings: for Plasma glucose concentration (mg/dL) Just before administration: fasted rats, baseline before oral dosing; for Plasma glucose concentration (mg/dL) Just before administration / Plasma glucose concentration (mg/dL) 1 hr after administration: mean ± standard error; for Plasma glucose concentration at 1 hr compared with the Control group (in words) / Plasma glucose concentration (mg/dL) 1 hr after administration: oral, monosebacate 0.03 mg/kg as free form, mitiglinide calcium hydrate 0.3 mg/kg, oral glucose load
Protocol: as §1
Instead of gliclazide in the Gliclazide alone group and the Gliclazide combination group, mitiglinide calcium hydrate (JAN) (0.3 mg/kg as mitiglinide calcium hydrate) was used (hereinafter referred to as the “Mitiglinide alone group” and the “Mitiglinide combination group”, respectively), and the plasma glucose concentrations were measured in the same way as the above method (1). The numerical values in the table represent mean value±standard error.

[4] = 40° C./75% relative humidity storage test
[5] = 60° C. in open vessels storage test
[6] = stored at 40° C./75% relative humidity for 2 months
[7] = stored at 60° C. in open vessels for 2 months

Row | Compound | Deliquescence ([1]; 40° C./75% relative humidity) | Purity (%) Initial [1, 4] [%] | Storage stability (in words) ([1]; 40° C./75% relative humidity) | Deliquescence ([1]; 40° C./75% relative humidity, listed as free form) | Purity (%) Initial [1, 5] [%] | Storage stability (in words) ([1]; 60° C. in open vessels) | Purity (%) After 2 months [1, 6] [%] | Purity (%) After 2 months [1, 7] [%] | Plasma glucose concentration (mg/dL) Just before administration [2] [mg/dL] | Plasma glucose concentration at 1 hr compared with the Control group (in words) [2] | Plasma glucose concentration (mg/dL) 1 hr after administration [2] [mg/dL] | Plasma glucose concentration (mg/dL) Just before administration [3] [mg/dL] | Plasma glucose concentration at 1 hr compared with the Control group (in words) [3] | Plasma glucose concentration (mg/dL) 1 hr after administration [3] [mg/dL]
1 | Cc1cc(OCCCNCC(C)(C)C(N)=O)ccc1Cc1c(O[C@@H]2O[C@H](CO)[C@@H](O)[C@H](O)[C@H]2O)n[nH]c1C(C)C [Comparative Example, 3-(3-{4-[3-(β-D-glucopyranosyloxy)-5-isopropyl-1H-pyrazol-4-ylmethyl]-3-methylphenoxy}propylamino)-2,2-dimethylpropionamide] | Yes | 98.7 | decrease in the purity | deliquescence from the initial of the experiment | 98.7 | remarkable decrease in the purity due to the decomposition | 97.0 | 95.3 |  |  |  |  |  | 
2 | Cc1ccc(S(=O)(=O)NC(=O)NN2CC3CCCC3C2)cc1 (stereo not drawn) [Gliclazide, gliclazide] |  |  |  |  |  |  |  |  | 80.7 ± 6.7 | lower plasma glucose concentrations | 136.5 ± 6.7 |  |  | 
3 | O=C(O)[C@H](CC(=O)N1C[C@H]2CCCC[C@H]2C1)Cc1ccccc1 [Mitiglinide, mitiglinide calcium hydrate] |  |  |  |  |  |  |  |  |  |  |  | 85.8 ± 1.7 | lower plasma glucose concentrations | 119.1 ± 5.8
4 | Bis[3-(3-{4-[3-(β-D-glucopyranosyloxy)-5-isopropyl-1H-pyrazol-4-ylmethyl]-3-methylphenoxy}propylamino)-2,2-dimethylpropionamide] monosebacate [Example 1] | Nil | 99.6 | excellent storage stability |  | 99.6 | almost no decrease in the purity | 99.5 | 99.2 | 81.6 ± 3.1 | lower plasma glucose concentrations | 127.6 ± 3.8 | 83.8 ± 1.8 | lower plasma glucose concentrations | 141.3 ± 5.6
